From BindingDB's records for doi:10.1016/j.bmcl.2012.07.091 (University of Copenhagen, 2012)
pIC50, pKi: −log10 of the molar value.

Each compound was assayed against T1, Lysine-specific demethylase 4C (Homo sapiens, UniProt Q9H3R0) (assay: Inhibition of KDM4C catalytic core-mediated demethylation of ARK(Me)3STGGK after 30 mins by FDH-coupled assay).
T1 sequence (Q9H3R0 whole entry): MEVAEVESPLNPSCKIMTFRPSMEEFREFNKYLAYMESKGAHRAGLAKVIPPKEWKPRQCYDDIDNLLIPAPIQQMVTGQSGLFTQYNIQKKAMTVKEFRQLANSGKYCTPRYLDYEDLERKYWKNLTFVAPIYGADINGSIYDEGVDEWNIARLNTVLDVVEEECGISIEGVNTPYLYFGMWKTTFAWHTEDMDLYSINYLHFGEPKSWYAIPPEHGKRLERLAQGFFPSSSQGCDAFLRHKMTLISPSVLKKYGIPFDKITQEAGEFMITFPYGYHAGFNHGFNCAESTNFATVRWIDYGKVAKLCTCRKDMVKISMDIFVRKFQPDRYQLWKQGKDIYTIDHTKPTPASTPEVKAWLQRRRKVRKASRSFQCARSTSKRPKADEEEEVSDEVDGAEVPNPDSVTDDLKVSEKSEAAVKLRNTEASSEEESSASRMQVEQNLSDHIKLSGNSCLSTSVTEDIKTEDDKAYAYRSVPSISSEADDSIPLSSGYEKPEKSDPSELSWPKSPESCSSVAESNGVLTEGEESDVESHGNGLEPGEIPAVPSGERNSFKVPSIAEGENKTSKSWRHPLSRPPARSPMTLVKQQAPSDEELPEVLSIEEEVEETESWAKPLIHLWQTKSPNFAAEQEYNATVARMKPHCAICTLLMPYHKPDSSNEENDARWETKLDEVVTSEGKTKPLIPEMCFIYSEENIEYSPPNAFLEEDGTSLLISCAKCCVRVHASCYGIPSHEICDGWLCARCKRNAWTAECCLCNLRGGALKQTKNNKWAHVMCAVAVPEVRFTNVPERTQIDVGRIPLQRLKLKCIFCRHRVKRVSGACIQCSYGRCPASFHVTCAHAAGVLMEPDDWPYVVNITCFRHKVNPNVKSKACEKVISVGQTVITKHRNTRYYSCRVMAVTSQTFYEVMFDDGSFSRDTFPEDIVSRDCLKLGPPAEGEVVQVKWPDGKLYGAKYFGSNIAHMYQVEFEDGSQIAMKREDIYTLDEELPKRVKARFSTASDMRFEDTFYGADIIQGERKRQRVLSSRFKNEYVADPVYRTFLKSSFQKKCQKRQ

Compound | pIC50 | pKi
CNC(=O)c1n[nH]n(C)c1=O | < 3.70 | < 3.70
OCC1C(Cl)N=NN1c1ccccc1 (stereo unspecified) | < 3.70 | < 3.70
CN1CN(Cc2ccccc2)CC1=S | < 3.70 | < 3.70
